# Test results reported in US20260207623A1, “USE OF ESTETROL IN HEPATICALLY IMPAIRED PATIENTS” (ESTETRA SRL, priority 2022, published 2026).
# Tested on: female subjects with normal hepatic function, mild, moderate or severe hepatic impairment
# Test: Safety and tolerability (TEAEs, clinical laboratory, vital signs, physical examination) after a single oral dose of 20 mg E4 monohydrate in the hepatic impairment study
# Assay type: in vivo, human
# Conditions: single oral 20 mg
# Experimental: This was a Phase 1, multi-centre, open-label, PK, and safety study of a single oral dose of 20 mg E4 monohydrate in female subjects with normal hepatic function (Group 1), mild hepatic impairment (Group 2), moderate hepatic impairment (Group 3), and severe hepatic impairment (Group 4), as defined using the Child-Pugh classification at Screening.
# Safety and tolerability assessments consisted of treatment-emergent AEs (TEAEs), clinical laboratory, vital signs, physical examination, and gynecological examination. Assessments were performed in accordance with Table 2 and Table 3 in Section 2.5.1.
# AEs/TEAEs were recorded after signing of the ICF until completion of the follow up visit. Any clinically significant observations in results of clinical laboratory, vital signs, or physical examinations were recorded as AEs.
# A TEAE is defined as any event not present prior to administration of the study drug or any event already present that worsens in either severity or frequency following exposure to the study drug.
# The below listed tests were to be performed by the local laboratories at time points indicated in the Schedule of Assessments (Table 2).
# Systolic and diastolic blood pressure and pulse were recorded after the subject had been resting for at least 5 minutes in the supine position at time points indicated in the Schedule of Assessments (Table 2). These assessments were made using an automated device. Body temperature and respiratory rate were measured subsequently.
# A complete physical examination consisting of a review of all body systems was performed at time points indicated in the Schedule of Assessments (Table 2). A symptom-directed physical examination could be conducted at any time per Investigator's discretion.
# 2.6.2.2 Evaluation of Safety and Tolerability Safety and tolerability were assessed through TEAEs, clinical laboratory, vital signs, and physical examination findings, and any other parameter that was relevant for safety assessment.
# A listing of all individual AEs is provided. Summary tables of TEAEs are presented by system organ class (SOC) based on the MedDRA terminology list (preferred terms): a table containing the number of subjects experiencing AEs by hepatic function, a table containing the number of subjects experiencing SAEs by hepatic function (if applicable), a table by hepatic function and relationship, and a table by hepatic function and severity.
# [1] = Mild hepatic impairment (N = 8)
# [2] = Moderate hepatic impairment (N = 8)
# [3] = Normal hepatic function (N = 8)
compound,measurement,setting,value
"C[C@]12CC[C@@H]3c4ccc(O)cc4CC[C@H]3[C@@H]1[C@@H](O)[C@@H](O)[C@@H]2O [E4 monohydrate, estetrol monohydrate]","TEAE by severity: Back pain, severity Mild",[1],0 (0.0) n (%)
same,"TEAE by severity: Back pain, severity Moderate",[1],0 (0.0) n (%)
same,"TEAE by severity: Diarrhea, severity Mild",[1],0 (0.0) n (%)
same,"TEAE by severity: Diarrhea, severity Moderate",[1],0 (0.0) n (%)
same,"TEAE by severity: Gastrointestinal disorders, severity Mild",[1],0 (0.0) n (%)
same,"TEAE by severity: Gastrointestinal disorders, severity Moderate",[1],0 (0.0) n (%)
same,"TEAE by severity: General disorders and administration site conditions, severity Mild",[1],0 (0.0) n (%)
same,"TEAE by severity: Haemarthrosis, severity Mild",[1],1 (12.5) n (%)
same,"TEAE by severity: Headache, severity Mild",[1],0 (0.0) n (%)
same,"TEAE by severity: Headache, severity Moderate",[1],0 (0.0) n (%)
same,"TEAE by severity: Hypertension, severity Mild",[1],2 (25.0) n (%)
same,"TEAE by severity: Musculoskeletal and connective tissue disorders, severity Mild",[1],1 (12.5) n (%)
same,"TEAE by severity: Musculoskeletal and connective tissue disorders, severity Moderate",[1],0 (0.0) n (%)
same,"TEAE by severity: Nervous system disorders, severity Mild",[1],0 (0.0) n (%)
same,"TEAE by severity: Nervous system disorders, severity Moderate",[1],0 (0.0) n (%)
same,"TEAE by severity: Pain in extremity, severity Mild",[1],0 (0.0) n (%)
same,"TEAE by severity: Pancreatitis, severity Moderate",[1],0 (0.0) n (%)
same,"TEAE by severity: Pyrexia, severity Mild",[1],0 (0.0) n (%)
same,"TEAE by severity: Renal and urinary disorders, severity Mild",[1],0 (0.0) n (%)
same,"TEAE by severity: Renal impairment, severity Mild",[1],0 (0.0) n (%)
same,"TEAE by severity: Vascular disorders, severity Mild",[1],2 (25.0) n (%)
same,TEAE: Back pain,[1],0 (0.0) n (%)
same,TEAE: Diarrhea,[1],0 (0.0) n (%)
same,TEAE: Gastrointestinal disorders,[1],0 (0.0) n (%)
same,TEAE: General disorders and administration site conditions,[1],0 (0.0) n (%)
same,TEAE: Haemarthrosis,[1],1 (12.5) n (%)
same,TEAE: Headache,[1],0 (0.0) n (%)
same,TEAE: Hypertension,[1],2 (25.0) n (%)
same,TEAE: Musculoskeletal and connective tissue disorders,[1],1 (12.5) n (%)
same,TEAE: Nervous system disorders,[1],0 (0.0) n (%)
same,TEAE: Pain in extremity,[1],0 (0.0) n (%)
same,TEAE: Pancreatitis,[1],0 (0.0) n (%)
same,TEAE: Pyrexia,[1],0 (0.0) n (%)
same,TEAE: Renal and urinary disorders,[1],0 (0.0) n (%)
same,TEAE: Renal impairment,[1],0 (0.0) n (%)
same,TEAE: Total Subjects with at Least One TEAE,[1],2 (25.0) n (%)
same,TEAE: Vascular disorders,[1],2 (25.0) n (%)
same,"TEAE by severity: Back pain, severity Mild",[2],0 (0.0) n (%)
same,"TEAE by severity: Back pain, severity Moderate",[2],0 (0.0) n (%)
same,"TEAE by severity: Diarrhea, severity Mild",[2],2 (25.0) n (%)
same,"TEAE by severity: Diarrhea, severity Moderate",[2],0 (0.0) n (%)
same,"TEAE by severity: Gastrointestinal disorders, severity Mild",[2],2 (25.0) n (%)
same,"TEAE by severity: Gastrointestinal disorders, severity Moderate",[2],0 (0.0) n (%)
same,"TEAE by severity: General disorders and administration site conditions, severity Mild",[2],1 (12.5) n (%)
same,"TEAE by severity: Haemarthrosis, severity Mild",[2],0 (0.0) n (%)
same,"TEAE by severity: Headache, severity Mild",[2],1 (12.5) n (%)
same,"TEAE by severity: Headache, severity Moderate",[2],1 (12.5) n (%)
same,"TEAE by severity: Hypertension, severity Mild",[2],0 (0.0) n (%)
same,"TEAE by severity: Musculoskeletal and connective tissue disorders, severity Mild",[2],1 (12.5) n (%)
same,"TEAE by severity: Musculoskeletal and connective tissue disorders, severity Moderate",[2],0 (0.0) n (%)
same,"TEAE by severity: Nervous system disorders, severity Mild",[2],1 (12.5) n (%)
same,"TEAE by severity: Nervous system disorders, severity Moderate",[2],1 (12.5) n (%)
same,"TEAE by severity: Pain in extremity, severity Mild",[2],1 (12.5) n (%)
same,"TEAE by severity: Pancreatitis, severity Moderate",[2],0 (0.0) n (%)
same,"TEAE by severity: Pyrexia, severity Mild",[2],1 (12.5) n (%)
same,"TEAE by severity: Renal and urinary disorders, severity Mild",[2],0 (0.0) n (%)
same,"TEAE by severity: Renal impairment, severity Mild",[2],0 (0.0) n (%)
same,"TEAE by severity: Vascular disorders, severity Mild",[2],0 (0.0) n (%)
same,TEAE: Back pain,[2],0 (0.0) n (%)
same,TEAE: Diarrhea,[2],2 (25.0) n (%)
same,TEAE: Gastrointestinal disorders,[2],2 (25.0) n (%)
same,TEAE: General disorders and administration site conditions,[2],1 (12.5) n (%)
same,TEAE: Haemarthrosis,[2],0 (0.0) n (%)
same,TEAE: Headache,[2],2 (25.0) n (%)
same,TEAE: Hypertension,[2],0 (0.0) n (%)
same,TEAE: Musculoskeletal and connective tissue disorders,[2],1 (12.5) n (%)
same,TEAE: Nervous system disorders,[2],2 (25.0) n (%)
same,TEAE: Pain in extremity,[2],1 (12.5) n (%)
same,TEAE: Pancreatitis,[2],0 (0.0) n (%)
same,TEAE: Pyrexia,[2],1 (12.5) n (%)
same,TEAE: Renal and urinary disorders,[2],0 (0.0) n (%)
same,TEAE: Renal impairment,[2],0 (0.0) n (%)
same,TEAE: Total Subjects with at Least One TEAE,[2],4 (50.0) n (%)
same,TEAE: Vascular disorders,[2],0 (0.0) n (%)
same,"TEAE by severity: Back pain, severity Mild",[3],0 (0.0) n (%)
same,"TEAE by severity: Back pain, severity Moderate",[3],1 (12.5) n (%)
same,"TEAE by severity: Diarrhea, severity Mild",[3],0 (0.0) n (%)
same,"TEAE by severity: Diarrhea, severity Moderate",[3],1 (12.5) n (%)
same,"TEAE by severity: Gastrointestinal disorders, severity Mild",[3],0 (0.0) n (%)
same,"TEAE by severity: Gastrointestinal disorders, severity Moderate",[3],2 (25.0) n (%)
same,"TEAE by severity: General disorders and administration site conditions, severity Mild",[3],0 (0.0) n (%)
same,"TEAE by severity: Haemarthrosis, severity Mild",[3],0 (0.0) n (%)
same,"TEAE by severity: Headache, severity Mild",[3],0 (0.0) n (%)
same,"TEAE by severity: Headache, severity Moderate",[3],0 (0.0) n (%)
same,"TEAE by severity: Hypertension, severity Mild",[3],0 (0.0) n (%)
same,"TEAE by severity: Musculoskeletal and connective tissue disorders, severity Mild",[3],0 (0.0) n (%)
same,"TEAE by severity: Musculoskeletal and connective tissue disorders, severity Moderate",[3],1 (12.5) n (%)
same,"TEAE by severity: Nervous system disorders, severity Mild",[3],0 (0.0) n (%)
same,"TEAE by severity: Nervous system disorders, severity Moderate",[3],0 (0.0) n (%)
same,"TEAE by severity: Pain in extremity, severity Mild",[3],0 (0.0) n (%)
same,"TEAE by severity: Pancreatitis, severity Moderate",[3],1 (12.5) n (%)
same,"TEAE by severity: Pyrexia, severity Mild",[3],0 (0.0) n (%)
same,"TEAE by severity: Renal and urinary disorders, severity Mild",[3],0 (0.0) n (%)
same,"TEAE by severity: Renal impairment, severity Mild",[3],0 (0.0) n (%)
